The source made the active and inactive calls.
How the values were obtained:
[1] = test system: Streptococcus sp. 'group A'; assay: Streptococcus pyogenes SK(-)GAS viability under kanamycin – luminescence, BacTiterGlo, confirmation, counter-screen for streptokinase expression inhibitor project, dose response (AID 1900); type: functional, organism-based
[2] = target: T1, Streptokinase A (Streptococcus pyogenes serotype M1, UniProt P10520); assay: viability-normalized secreted streptokinase activity reduction – plasminogen activation absorbance, OD405, dose response (AID 1914); type: functional, Streptococcus pyogenes M1 GAS;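 also: secreted streptokinase activity via plasminogen activation per viability signal from cell pellet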
T1 sequence (P10520 whole entry): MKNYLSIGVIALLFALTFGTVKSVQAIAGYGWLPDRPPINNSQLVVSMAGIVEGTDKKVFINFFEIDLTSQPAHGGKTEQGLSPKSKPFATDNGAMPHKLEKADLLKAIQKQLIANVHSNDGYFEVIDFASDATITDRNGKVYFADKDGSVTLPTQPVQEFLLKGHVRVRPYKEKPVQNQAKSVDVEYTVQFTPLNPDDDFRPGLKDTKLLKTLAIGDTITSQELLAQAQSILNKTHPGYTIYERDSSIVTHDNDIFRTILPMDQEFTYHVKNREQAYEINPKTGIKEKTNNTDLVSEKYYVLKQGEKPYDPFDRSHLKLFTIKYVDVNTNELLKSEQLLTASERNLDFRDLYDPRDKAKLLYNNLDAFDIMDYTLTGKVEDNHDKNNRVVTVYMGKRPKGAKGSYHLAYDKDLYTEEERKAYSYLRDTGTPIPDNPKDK

[3] = Trypanosoma cruzi growth suppression in host cells – NIH3T3 host cells, beta-gal luminescence, confirmation (AID 2044); type: functional, cell-based;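 also: intracellular parasites grown in NIH/3T3 mouse fibroblasts as host cells; luminescent beta-galactosidase reporter signal from transgenic T. cruzi replicating inside host cells; inhibitors lower the luminescence signal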
[4] = NIH3T3 cell viability loss – ATP luminescence, mouse fibroblasts, counter-screen, dose response (AID 2010); type: functional, cell-based;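 also: cells exposed to compound for about 90 hours before reading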
[5] = test system: Streptococcus; assay: GAS UMAA2166 growth inhibition – luminescence, BacTiterGlo, counter-screen for streptokinase expression inhibitor project, dose response (AID 1915); type: functional, organism-based;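 also: potency for reduction of bacterial viability or growth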
[6] = target: T2, Replicative DNA helicase DnaB (Mycobacterium tuberculosis, UniProt P9WMR3); assay: DnaB intein splicing inhibitors, dose response, biochemical, cell-free fluorescence (AID 449749); type: functional
T2 sequence (P9WMR3 whole entry): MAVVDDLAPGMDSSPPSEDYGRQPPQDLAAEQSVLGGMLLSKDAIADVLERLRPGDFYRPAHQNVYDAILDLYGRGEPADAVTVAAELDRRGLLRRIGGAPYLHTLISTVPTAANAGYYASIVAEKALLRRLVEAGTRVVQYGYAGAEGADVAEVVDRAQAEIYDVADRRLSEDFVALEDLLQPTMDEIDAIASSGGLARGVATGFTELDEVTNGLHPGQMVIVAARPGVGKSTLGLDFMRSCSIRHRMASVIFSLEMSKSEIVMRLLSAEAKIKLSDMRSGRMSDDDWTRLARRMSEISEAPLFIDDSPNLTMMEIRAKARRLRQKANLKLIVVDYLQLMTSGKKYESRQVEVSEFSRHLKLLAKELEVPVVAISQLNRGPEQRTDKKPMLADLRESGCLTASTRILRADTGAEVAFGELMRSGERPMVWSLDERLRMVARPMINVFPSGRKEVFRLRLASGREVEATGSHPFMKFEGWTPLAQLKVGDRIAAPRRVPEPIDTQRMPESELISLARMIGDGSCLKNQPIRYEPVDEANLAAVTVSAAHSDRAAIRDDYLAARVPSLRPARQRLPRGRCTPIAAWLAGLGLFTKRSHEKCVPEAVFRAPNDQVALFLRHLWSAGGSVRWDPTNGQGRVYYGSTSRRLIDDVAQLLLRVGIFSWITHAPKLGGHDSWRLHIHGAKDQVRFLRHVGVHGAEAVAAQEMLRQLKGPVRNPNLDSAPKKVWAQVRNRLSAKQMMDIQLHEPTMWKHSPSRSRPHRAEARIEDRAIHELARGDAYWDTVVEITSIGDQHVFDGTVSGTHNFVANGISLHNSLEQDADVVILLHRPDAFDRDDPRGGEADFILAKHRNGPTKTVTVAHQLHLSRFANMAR

[7] = target: T3, Protein RecA (Mycobacterium tuberculosis, UniProt P9WHJ3); assay: Fluorescence Cell-Free Homogeneous Dose Retest to Identify Inhibitors of RecA-Intein Splicing Activity. [Related pubchem assays (depositor defined):AID2097, AID2223, AID489010, AID492950]; type: functional
T3 sequence (P9WHJ3 whole entry): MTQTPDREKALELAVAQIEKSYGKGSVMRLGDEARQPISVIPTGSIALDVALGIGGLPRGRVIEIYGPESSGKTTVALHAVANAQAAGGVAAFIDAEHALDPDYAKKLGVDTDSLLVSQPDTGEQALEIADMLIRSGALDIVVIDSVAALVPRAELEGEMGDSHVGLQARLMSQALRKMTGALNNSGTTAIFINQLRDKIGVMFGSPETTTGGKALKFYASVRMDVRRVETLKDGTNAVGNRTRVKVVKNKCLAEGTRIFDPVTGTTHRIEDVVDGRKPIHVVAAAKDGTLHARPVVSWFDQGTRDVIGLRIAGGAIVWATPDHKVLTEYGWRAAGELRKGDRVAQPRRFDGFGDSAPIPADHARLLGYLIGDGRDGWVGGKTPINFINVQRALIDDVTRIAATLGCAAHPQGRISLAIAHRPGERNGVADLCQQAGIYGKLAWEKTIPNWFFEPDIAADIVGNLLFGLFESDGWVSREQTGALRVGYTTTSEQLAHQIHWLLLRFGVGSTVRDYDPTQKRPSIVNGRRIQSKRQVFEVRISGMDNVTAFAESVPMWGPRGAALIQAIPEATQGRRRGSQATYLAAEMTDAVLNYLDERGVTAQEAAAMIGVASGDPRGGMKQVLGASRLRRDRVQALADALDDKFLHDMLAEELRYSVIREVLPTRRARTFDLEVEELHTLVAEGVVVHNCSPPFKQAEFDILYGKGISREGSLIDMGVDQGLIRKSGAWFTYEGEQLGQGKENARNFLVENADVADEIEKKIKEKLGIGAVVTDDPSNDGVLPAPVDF

[8] = target: 26S proteasome non-ATPase regulatory subunit 14 (Homo sapiens, UniProt O00487); assay: inhibition of proteasome subunit RPN11 – biochemical, fluorescence polarization, uHTS hits, confirmation (AID 602368); type: functional
26S proteasome non-ATPase regulatory subunit 14, sequence (O00487 whole entry): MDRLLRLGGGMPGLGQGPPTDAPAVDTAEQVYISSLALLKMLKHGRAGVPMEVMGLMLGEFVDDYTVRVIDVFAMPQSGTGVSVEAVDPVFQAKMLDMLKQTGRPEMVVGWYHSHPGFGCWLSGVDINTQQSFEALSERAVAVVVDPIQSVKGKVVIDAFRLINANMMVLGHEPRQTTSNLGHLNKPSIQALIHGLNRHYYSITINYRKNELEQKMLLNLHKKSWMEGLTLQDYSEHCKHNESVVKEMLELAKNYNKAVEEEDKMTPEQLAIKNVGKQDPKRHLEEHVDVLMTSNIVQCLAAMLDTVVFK

[9] = target: 72 kDa type IV collagenase (Homo sapiens, UniProt P08253); assay: Dose Response validation of uHTS RPN11 inhibitor hits using a MMP-2 Fluorescence assay.; type: functional
72 kDa type IV collagenase, sequence (P08253 whole entry): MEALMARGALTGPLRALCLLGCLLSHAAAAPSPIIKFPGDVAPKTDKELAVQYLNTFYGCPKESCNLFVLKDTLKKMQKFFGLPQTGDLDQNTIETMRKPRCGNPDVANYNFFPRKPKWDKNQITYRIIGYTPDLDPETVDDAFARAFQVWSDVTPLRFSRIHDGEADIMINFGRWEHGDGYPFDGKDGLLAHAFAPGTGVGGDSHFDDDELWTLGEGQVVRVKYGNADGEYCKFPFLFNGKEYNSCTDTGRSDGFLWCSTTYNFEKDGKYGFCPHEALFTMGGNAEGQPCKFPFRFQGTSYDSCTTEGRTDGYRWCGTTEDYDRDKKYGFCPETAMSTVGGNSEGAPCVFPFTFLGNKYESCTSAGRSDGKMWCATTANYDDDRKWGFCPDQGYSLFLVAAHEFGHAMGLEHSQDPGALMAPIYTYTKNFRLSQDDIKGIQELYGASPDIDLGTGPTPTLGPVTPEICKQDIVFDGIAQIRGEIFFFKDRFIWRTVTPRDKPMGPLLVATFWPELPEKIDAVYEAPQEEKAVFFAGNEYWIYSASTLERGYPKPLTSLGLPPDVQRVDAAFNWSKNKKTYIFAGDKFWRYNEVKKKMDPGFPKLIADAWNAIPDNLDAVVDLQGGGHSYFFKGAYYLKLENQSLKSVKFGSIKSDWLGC

[10] = target: Prothrombin (Bos taurus, UniProt P00735); assay: thrombin protease inhibitors – biochemical, fluorescence polarization, uHTS hits, dose response (AID 602369); type: functional
[11] = NIH-3T3 fibroblast cytotoxicity, dose response, cytotoxicity control, cell-based, fluorescence, Alamar Blue, secondary assay (AID 2327); type: functional;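 also: NIH-3T3 mouse fibroblasts cultured with fluconazole at 8 µg/mL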
[12] = cells; type: functional, cell-based
[13] = fluconazole-exposed Candida albicans growth modulators – fluorescence, retest, confirmation (AID 2467); type: functional, cell-based
[14] = cells; type: functional, cell-based; remark: listed apart in the source
[15] = HEK-293T viability loss after treatment – luminescence, T-cell screen hits, cytotoxicity control for TCR NF-kB inhibitor project, dose response (AID 489026); type: functional, cell-based;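 also: cells exposed to compound about 14 hours before the viability readout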
[16] = target: Heat shock protein HSP 90-alpha (Homo sapiens, UniProt P07900); type: functional, organism-based
[17] = test system: INS1; assay: INS-1E survival protection against cytokine death – cell-based, luminescence, retest, dose response (AID 449756); type: functional; conditions: Rattus norvegicus;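 also: cell death triggered by IL-1 beta plus TNF-alpha plus IFN-gamma mixture; protective hits raise ATP signal compared with cytokine alone wells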
[18] = test system: HEK293; assay: inhibition of NOD1-driven NF-kB reporter – cell-based, luminescence, uHTS, primary screen (AID 1578); type: functional; conditions: Homo sapiens
[19] = test system: HEK293; assay: cells; type: functional, cell-based; conditions: Homo sapiens
[20] = test system: HEK293; assay: cells; type: functional, cell-based; conditions: Homo sapiens; remark: listed apart in the source
[21] = test system: HEK293; assay: NOD2 signaling inhibitors in MDP-stimulated cells, cell-based, uHTS, luminescence (AID 2001); type: functional; conditions: Homo sapiens
[22] = target: CAAX prenyl protease 2 (Saccharomyces cerevisiae S288c, UniProt Q03530); type: biochemical
CAAX prenyl protease 2 (Saccharomyces cerevisiae S288c, UniProt Q03530), sequence (Q03530 whole entry): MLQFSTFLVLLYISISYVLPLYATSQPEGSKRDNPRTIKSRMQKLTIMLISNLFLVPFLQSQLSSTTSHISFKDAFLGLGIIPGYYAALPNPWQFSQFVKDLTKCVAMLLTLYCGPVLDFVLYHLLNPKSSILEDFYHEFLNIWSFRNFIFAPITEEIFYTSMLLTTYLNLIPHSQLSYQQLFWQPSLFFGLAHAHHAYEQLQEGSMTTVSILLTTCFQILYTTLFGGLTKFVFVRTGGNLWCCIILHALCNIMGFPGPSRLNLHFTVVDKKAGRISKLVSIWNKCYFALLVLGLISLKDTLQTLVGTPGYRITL

[23] = target: CAAX prenyl protease 2 (Homo sapiens, UniProt Q9Y256); assay: inhibition of Ras-converting CAAX protease Rce1 – biochemical, yeast membranes, quenched-peptide fluorescence, cherry-pick, dose response (AID 588849)
CAAX prenyl protease 2 (Homo sapiens, UniProt Q9Y256), sequence (Q9Y256 whole entry): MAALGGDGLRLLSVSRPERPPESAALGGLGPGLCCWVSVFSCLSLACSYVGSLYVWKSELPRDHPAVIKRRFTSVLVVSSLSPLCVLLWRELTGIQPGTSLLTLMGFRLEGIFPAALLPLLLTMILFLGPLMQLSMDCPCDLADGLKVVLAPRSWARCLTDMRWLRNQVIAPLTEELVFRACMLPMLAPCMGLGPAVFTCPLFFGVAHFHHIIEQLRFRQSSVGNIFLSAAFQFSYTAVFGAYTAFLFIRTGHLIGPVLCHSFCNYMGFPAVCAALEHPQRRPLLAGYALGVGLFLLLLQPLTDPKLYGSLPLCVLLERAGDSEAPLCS

[24] = target: DNA repair protein RAD52 homolog (Homo sapiens, UniProt P43351); type: functional, biochemical
DNA repair protein RAD52 homolog, sequence (P43351 whole entry): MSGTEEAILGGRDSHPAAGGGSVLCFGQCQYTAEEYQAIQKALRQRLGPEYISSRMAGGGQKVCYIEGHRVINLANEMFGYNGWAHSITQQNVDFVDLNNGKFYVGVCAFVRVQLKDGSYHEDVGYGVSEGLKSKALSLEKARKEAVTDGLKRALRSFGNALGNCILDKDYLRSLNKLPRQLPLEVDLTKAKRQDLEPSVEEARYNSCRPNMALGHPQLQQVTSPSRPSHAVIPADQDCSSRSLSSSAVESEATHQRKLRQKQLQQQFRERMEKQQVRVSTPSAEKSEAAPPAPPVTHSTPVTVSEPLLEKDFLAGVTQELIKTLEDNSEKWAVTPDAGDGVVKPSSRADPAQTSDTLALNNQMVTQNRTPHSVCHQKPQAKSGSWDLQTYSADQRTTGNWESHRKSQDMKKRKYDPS

[25] = cells
[26] = luciferase reporter signal suppression in cells – H4 neuroglioma cells, luminescence, dose response (AID 1990); type: functional, cell-based
[27] = test system: BJ; assay: BJ-TERT fibroblast viability loss – cell-based, RAS-independent, luminescence, dose response (AID 1933); type: functional; conditions: Homo sapiens
[28] = Luminescence Cell-Based Dose Response HTS to Identify Inhibitors of 5'UTR Stem-Loop Driven Prion Protein mRNA Translation in H4 Neuroglioblastoma Cells. [Related pubchem assays: 1827 (Project Summary), 1813 (Primary HTS)]; type: functional
[29] = alpha-synuclein stem-loop luciferase translation blockers – H4 neuroglioma cells, luminescence, confirmation (AID 1988); type: functional, cell-based
[30] = test system: BJ; assay: cells; type: functional, cell-based; conditions: Homo sapiens
[31] = target: NS3 (Hepatitis C virus, UniProt A3EZJ3); assay: PubChem AID 2173; parameters: species or system Hepacivirus hominis
NS3, sequence (A3EZJ3 whole entry): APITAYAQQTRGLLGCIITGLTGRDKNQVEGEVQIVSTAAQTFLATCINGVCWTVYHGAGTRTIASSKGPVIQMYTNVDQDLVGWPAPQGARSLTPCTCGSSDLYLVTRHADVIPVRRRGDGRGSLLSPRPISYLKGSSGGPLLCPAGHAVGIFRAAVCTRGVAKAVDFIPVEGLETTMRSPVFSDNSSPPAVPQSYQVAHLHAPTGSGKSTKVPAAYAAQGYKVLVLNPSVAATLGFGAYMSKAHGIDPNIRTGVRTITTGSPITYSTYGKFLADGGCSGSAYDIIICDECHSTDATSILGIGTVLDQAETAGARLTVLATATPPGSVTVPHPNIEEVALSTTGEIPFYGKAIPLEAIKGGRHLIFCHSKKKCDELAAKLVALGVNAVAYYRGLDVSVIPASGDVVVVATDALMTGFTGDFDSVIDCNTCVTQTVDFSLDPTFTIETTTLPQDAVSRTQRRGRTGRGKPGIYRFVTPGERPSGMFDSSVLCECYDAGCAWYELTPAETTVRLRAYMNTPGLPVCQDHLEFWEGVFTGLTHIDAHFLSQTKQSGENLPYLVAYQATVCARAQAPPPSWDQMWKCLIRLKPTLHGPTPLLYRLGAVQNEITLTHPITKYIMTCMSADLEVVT

[32] = test system: BJ; assay: BJ-TERT-LT-ST fibroblast viability loss – cell-based, RAS-independent, luminescence, dose response (AID 1935); type: functional; conditions: Homo sapiens;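 also: BJ fibroblasts immortalized with TERT plus LT and ST oncogenes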
[33] = DRD fibroblast viability loss – cell-based, non-viral oncogenic, luminescence, dose response (AID 1934); type: functional; conditions: Homo sapiens
[34] = target: Hepatocyte nuclear factor 4-alpha (Homo sapiens, UniProt P41235); type: functional, cell-based;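 also: biochemical luminescence-based dose-response counterscreen measuring inhibition of HNF4 dimerization, run alongside a screen for blockers of ABHD5–perilipin-5 interaction; split luciferase complementation of HNF4 fusion proteins in cell lysate measuring dimerization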
Hepatocyte nuclear factor 4-alpha, sequence (P41235 whole entry, the tested form may be a part): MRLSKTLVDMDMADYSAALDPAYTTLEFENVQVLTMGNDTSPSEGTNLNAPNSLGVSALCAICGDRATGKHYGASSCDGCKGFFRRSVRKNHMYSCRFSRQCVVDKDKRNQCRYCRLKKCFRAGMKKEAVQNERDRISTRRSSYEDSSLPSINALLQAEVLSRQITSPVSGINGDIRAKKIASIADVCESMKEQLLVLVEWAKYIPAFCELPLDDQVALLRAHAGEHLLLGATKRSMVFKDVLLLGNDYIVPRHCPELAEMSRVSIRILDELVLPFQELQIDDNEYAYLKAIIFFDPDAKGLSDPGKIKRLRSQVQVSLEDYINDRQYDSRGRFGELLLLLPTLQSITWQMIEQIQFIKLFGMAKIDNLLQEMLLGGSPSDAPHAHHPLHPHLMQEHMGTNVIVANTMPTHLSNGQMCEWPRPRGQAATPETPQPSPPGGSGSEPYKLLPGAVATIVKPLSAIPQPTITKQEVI

[35] = target: Cysteine protease ATG4B (Homo sapiens, UniProt Q9Y4P1); type: functional;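 also: Fluorescence-based dose-response confirmation assay measuring inhibition of ATG4B activity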
Cysteine protease ATG4B, sequence (Q9Y4P1 whole entry): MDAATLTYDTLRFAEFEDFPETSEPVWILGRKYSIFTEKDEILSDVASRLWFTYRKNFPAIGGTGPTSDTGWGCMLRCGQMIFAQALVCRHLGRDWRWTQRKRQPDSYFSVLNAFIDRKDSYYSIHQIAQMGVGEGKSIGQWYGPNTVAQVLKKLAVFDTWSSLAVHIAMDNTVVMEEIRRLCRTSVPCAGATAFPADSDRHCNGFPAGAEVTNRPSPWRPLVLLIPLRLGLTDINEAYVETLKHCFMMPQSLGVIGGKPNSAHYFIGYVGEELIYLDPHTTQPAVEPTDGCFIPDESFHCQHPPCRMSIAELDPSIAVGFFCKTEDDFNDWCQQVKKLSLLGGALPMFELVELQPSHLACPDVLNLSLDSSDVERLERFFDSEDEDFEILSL

[36] = target: Phospholipase A2 (Homo sapiens, UniProt P04054); type: functional;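 also: confirmatory dose-response counterscreen on phospholipase A2, testing hits that came from an ultra-high-throughput screen for ATG4B inhibitors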
Phospholipase A2, sequence (P04054 whole entry): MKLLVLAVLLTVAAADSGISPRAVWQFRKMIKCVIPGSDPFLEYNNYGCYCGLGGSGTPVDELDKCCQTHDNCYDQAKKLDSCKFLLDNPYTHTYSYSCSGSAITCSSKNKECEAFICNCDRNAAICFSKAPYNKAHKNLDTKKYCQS

Nc1c(-c2ccccc2)c(CSc2nc3ccccc3[nH]2)nn1-c1cccc(Cl)c1
EC50 [1]: 2.14 µM (active) | EC50 [2]: > 150 µM (not active) | EC50 [3]: 1.17 µM (active) | EC50 [4]: > 60 µM (not active) | EC50 [5]: > 150 µM (not active) | AC50 [6]: 3.17 µM (active) | EC50 [7]: 2.71 µM (active) | IC50 [8]: 34 µM (active) | IC50 [9]: > 100 µM (inactive) | IC50 [10]: 41.5 µM (active)

CCC(=O)NC(c1cccs1)c1ccc2cccnc2c1O (stereo not given)
EC50 [11]: 3.59 µM (active) | EC50 [12]: 8.02 µM (active) | EC50 [13]: 1.39 µM (active) | EC50 [3]: 0.48 µM (active) | EC50 [14]: > 350 µM (not active) | EC50 [4]: 1.48 µM (active) | IC50 [15]: > 80 µM (inactive) | AC50 [16]: 7.9 µM (active) | AC50 [17]: 0.86 µM (active)

CCC(C)(C)c1ccc(OCCCC[n+]2cccc(C)c2)c(C(C)(C)CC)c1
EC50 [18]: 8.28 µM (active) | EC50 [1]: 6.58 µM (active) | IC50 [19]: 4.11 µM (active) | EC50 [2]: 14.1 µM (active) | IC50 [20]: 7.99 µM (active) | IC50 [21]: 3.36 µM (active) | EC50 [3]: < 0.1 µM (active) | EC50 [4]: > 30 µM (not active) | EC50 [5]: 14.9 µM (active) | AC50 [22]: 10.5 µM (active) | AC50 [23]: 22 µM (active) | AC50 [24]: 7.32 µM (active) | EC50 [25]: 0.128 µM (active)

Cc1ccc(C)c(/C=C/C(=O)c2ccccc(=O)c2O)c1
EC50 [11]: > 150 µM (inactive) | EC50 [26]: 13.9 µM (active) | EC50 [1]: 1.41 µM (active) | EC50 [27]: 17.2 µM (inconclusive) | EC50 [28]: > 120 µM (not active) | EC50 [29]: 12.7 µM (active) | EC50 [30]: 14.4 µM (active) | EC50 [13]: 1.47 µM (active) | IC50 [31]: 2.52 µM (active) | EC50 [3]: 2.29 µM (active) | EC50 [4]: 8.18 µM (active) | EC50 [32]: > 150 µM (not active) | EC50 [33]: 56.8 µM (inconclusive) | EC50 [5]: 5 µM (active) | AC50 [16]: 2.42 µM (active) | IC50 [34]: 6.56 µM (active)

CCOC(=O)c1c(C)[nH]c(C(=O)COC(=O)COc2ccccc2C=O)c1C
IC50 [35]: 10.5 µM (active) | IC50 [36]: 9.64 µM (active)

— ChEMBL document CHEMBL1201862, “PubChem BioAssay data set” (2004)
